Assay results published in US20230146455A1, “TREATMENT OF INFLAMMATORY DISEASES WITH PEPTIDES AND PHARMACEUTICAL COMPOSITIONS” (Yuyu Pharma, Inc., priority 2020, published 2023).
Where “and” joins values, the source holds several entries; their conditions need not be identical. Equal entries are not always repeated. Where two headings read alike, the source gives them in different places. Where a SMILES comes first, the peptide text is derived from it. [ ]: non-standard residue; d: D form. Hyp = O=C(O)[C@@H]1C[C@@H](O)CN1

Legend:
[1] = test system: IL-6 cytokine release in poly I:C stimulated primary human corneal epithelial cells; experiment: Soluble IL-6 cytokine release in poly I:C stimulated primary human corneal epithelial cells by ELISA (Example 6); type: cell-based
Description: To determine the effect of compound by assessing the soluble IL-6 cytokine release in poly I:C stimulated primary human corneal epithelial cells by ELISA. • Test System: Primary Human Corneal Epithelial cells • Assay Format: 96-well plate format • Method of Detection: Enzyme-linked immunosorbent assay • Assay Controls: Hinokitiol Assay protocol as shown below was used to determine the significant effect of test compounds. The data was statistically analyzed by one-way ANOVA with a Bonferroni post test comparing all the columns. The significance was represented by the p value.

[2] = test system: Caco-2 cells monolayer; experiment: Apparent permeability, 21 day cultured Caco-2 cell monolayer, bi-directional (Example 7); type: in vitro ADME
Experimental: (§1) 10 mM stock solution of test compound was prepared in DMSO. 10 mM stock was diluted with 100% DMSO to prepare 0.2 mM, 0.2 mM stock was diluted with HBSS buffer to a final concentration of 2 μM.
(§2) Add 250 μL of DMEM to the basal compartment of 96 well multi-screen Caco-2 plates and seed 12000 cells/well (0.16×10^6 cells/ml) in all the apical wells required and 2 wells with only media as blank without cells. Place the Caco-2 plate in CO2 incubator at 37° C. for proliferation of cells.
(§3) The utilized media was replenished every alternate day by fresh medium. On 21st day, utilized medium was removed and washed twice with HBSS Buffer and incubated with HBSS buffer 30 min in incubator and initiated the assay.
(§4) 75 μL of test compound was added to apical wells and 250 μL of HBSS buffer with 1% DMSO was added to basal wells. Samples were collected at 120 min and processed as stated below.
(§5) 250 μL of test compound was added to basal wells and 75 μL of HBSS buffer with 1% DMSO was added to apical wells. Samples were collected at 120 min and processed as stated below.
(§6) Single point calibration curve in HBSS buffer was used. 100 μL of supernatant was diluted with 200 μL of water and submitted for LC-MS/MS analysis.
(§7) Efflux ratio=Papp of basal to apical samples/Papp of apical to basal samples
(§8) Recovery: {(dQ of Apical+dQ of Basal)/Standard dQ}*100

[3] = as above; type: in vitro ADME; details: Caco-2, 2 μM, 120 minutes; for recovery at 120 min, 2 μM: human
Experimental: as §1, §2, §3, §4, §5, §6, §7, §8

[4] = test system: IL-6 release in human PBMCs stimulated by poly(I:C), LPS or PMA/Ionomycin; experiment: IL-6 ELISA in stimulated human PBMCs, 2nd pilot study (Example 8); type: cell-based; details: for IL-6 (ELISA), individual wells / IL-6 (ELISA), Mean: 24 hr
Experimental: Human PBMCs frozen in a cryopreserve was thawed, washed with Hank's Balanced Salt Solution containing 10% Fetal bovine serum, and seeded onto a 24-well plate at a density of 1×10^6 cells/well with culture RPMI media containing 10% Fetal bovine serum in growth media in a 24 well plate for 12, 24, and 48 hrs and maintained at 37° C. in an atmosphere of 95% air and 5% CO2.
Human PBMCs was pretreated with a test compound; YDE-011 at 30 uM, 1 μM for 2 h before stimulation. An equal volume of 0.5% DMSO was used as a vehicle control. […] The supernatants from treated cells were harvested at 24 h and placed in 96 well for Human IL-6 ELISAS measurement according to the manufacturer's instructions (Invitrogen, CA, USA). […]
IL-6 measurement was performed by the sandwich ELISA method. The capture antibody was coated on a 96-well plate (Corning™ Costar™ 9018, NY, USA) at 100 ul/well and incubated overnight at 4° C. The interaction was blocked at room temperature for 2 h to prevent non-specific binding of the antigen-antibody. Then, the plate was incubated overnight at 4° C. with 1:200 diluted cell supernatants and standard dilute serial dilutions at 100 ul/well. Detection antibody was dispensed into the plate at 100 ul/well, and then allowed to incubate at a room temperature for 1 h. Finally, streptavidin-HRP (100 ul/well) was incubated at room temperature for 30 min. […] The sample reading was measured at 450 nm wavelength and 570 nm, and the quantification of the sample was converted as concentration (ng/ml) based on the standard curve extrapolation.

[5] = test system: rats with ELGE dry eye condition; experiment: Corneal damage induced by ELGE in rats; type: in vivo, rat

CC(C)C[C@H](NC(=O)CNC(=O)[C@H](CC(C)C)NC(=O)[C@H](CCC(N)=O)NC(=O)CNC(=O)[C@@H]1C[C@@H](O)CN1)C(=O)N[C@@H](C)C(=O)NCC(=O)N1CCC[C@H]1C(=O)N[C@@H](CCCCN)C(=O)O [YDE-011] (H-[Hyp]GQLGLAGPK-OH)
Poly I:C induced IL-6 cytokine release (in words) [1]: attenuate Poly I:C induced of IL-6 cytokine release in a dose dependent manner | tested concentrations with significant attenuation of IL-6 cytokine release [1]: 30 μM, 10 μM, 1 μM and 0.1 μM | Classification (Caco-2 Permeability) [2]: LOW | recovery at 120 min, 2 μM ([3]; read-out: A to B % Recovery): 15% | recovery at 120 min, 2 μM ([3]; read-out: B to A % Recovery): 88.5% | IL-6 induction in PBMCs (in words) ([4]; 1 uM, poly I:C, LPS or PMA/Ionomycin): effectively and significantly reduced IL-6 induction | IL-6 (ELISA), individual wells ([4]; PBMC + LPS(5 ug/ml) + YDE-011 1 uM): 14532.1 and 12561.2 | IL-6 (ELISA), Mean ([4]; PBMC + LPS(5 ug/ml) + YDE-011 1 uM, LPS alone Mean 26093.3): 13546.7 | IL-6 (ELISA), individual wells ([4]; PBMC + LPS(5 ug/ml) + YDE-011 30 uM): 23199.5 and 18310.8 | IL-6 (ELISA), Mean ([4]; PBMC + LPS(5 ug/ml) + YDE-011 30 uM, LPS alone Mean 26093.3): 20755.2 | IL-6 (ELISA), individual wells ([4]; PBMC + PMA(1 ng/ml)/Ionomycin(0.5 ug/ml) + YDE-011 1 uM): 2817.2 and 3828.2 | IL-6 (ELISA), Mean ([4]; PBMC + PMA(1 ng/ml)/Ionomycin(0.5 ug/ml) + YDE-011 1 uM, stimulant alone Mean 4075.5): 3322.7 | IL-6 (ELISA), individual wells ([4]; PBMC + PMA(1 ng/ml)/Ionomycin(0.5 ug/ml) + YDE-011 30 uM): 3114.6 and 3025 | IL-6 (ELISA), Mean ([4]; PBMC + PMA(1 ng/ml)/Ionomycin(0.5 ug/ml) + YDE-011 30 uM, stimulant alone Mean 4075.5): 3069.8 | IL-6 (ELISA), individual wells ([4]; PBMC + Poly I:C(25 ug/ml) + YDE-011 1 uM): 13701 and 12585.1 | IL-6 (ELISA), Mean ([4]; PBMC + Poly I:C(25 ug/ml) + YDE-011 1 uM, Poly I:C alone Mean 21429.5): 13143.1 | IL-6 (ELISA), individual wells ([4]; PBMC + Poly I:C(25 ug/ml) + YDE-011 30 uM): 39230.7 and 30634.7 | IL-6 (ELISA), Mean ([4]; PBMC + Poly I:C(25 ug/ml) + YDE-011 30 uM, Poly I:C alone Mean 21429.5): 34932.7 | IL-6 induction in PBMCs (in words) ([4]; higher concentration): diminished at a higher concentration | IL-6 levels induced by LPS or poly I:C (in words) ([4]; pilot studies): significantly reduced IL-6 levels induced by LPS or poly I:C

CC(C)C[C@H](NC(=O)[C@H](CCC(N)=O)NC(=O)CNC(=O)[C@@H]1C[C@@H](O)CN1)C(=O)NCC(=O)O [YDE-043] (H-[Hyp]GQLG-OH; N-terminus and C-terminus assumed)
Poly I:C induced IL-6 cytokine release (in words) [1]: attenuate Poly I:C induced of IL-6 cytokine release in a dose dependent manner | tested concentrations with significant attenuation of IL-6 cytokine release [1]: 30 μM, 10 μM, 1 μM and 0.1 μM | Classification (Caco-2 Permeability) [2]: LOW | recovery ([3]; read-out: A to B % Recovery): 34% | recovery ([3]; read-out: B to A % Recovery): 67.2% | corneal damage induced by ELGE (in words) [5]: effective in improving corneal damaged induced by ELGE
